These are literature values, as cited in patent publication US20030069214A1, “Process for preparing saponin compounds” (priority 2001, published 2003).

Data set [1] relates to broad spectrum of malignant tumor cells. Particulars: Bioorg. Med. Chem. Lett., 7, 633, 1997.
The test system of data set [2] is normal cells. Particulars: normal cells in vitro; Bioorg. Med. Chem. Lett., 7, 633, 1997.

As to `COc1ccc(C(=O)O[C@H]2[C@H](O[C@@H]3[C@@H](OC(C)=O)[C@H](O[C@H]4C[C@H]5[C@@H]6CC=C7C[C@@H](O)CC[C@]7(C)[C@H]6CC[C@]5(C)[C@@]4(O)[C@H](C)C(=O)CCC(C)C)OC[C@@H]3O)OC[C@@H](O)[C@@H]2O)cc1` [OSW-1], the “toxicity against malignant tumor cells” value in data set [1] is given as “highly toxic”. Moreover, the “toxicity to normal cells” value in data set [2] is listed as “little toxicity”.
